# Data taken from publication PMC8713996, “An anti-tuberculosis compound screen using a zebrafish infection model identifies an aspartyl-tRNA synthetase inhibitor” (Disease Models & Mechanisms, 2021).
# Key:
# [1] = test system: Mtb-R-TBA161-C (aspS F526L); type: cell-based, Mycobacterium tuberculosis
# [2] = test system: Mtb carrying pMS2-aspSMmar or pMS2-aspSMmarR168G; type: cell-based, Mycobacterium tuberculosis
smiles,measurement,setting,value
"O=c1c2cc(Cl)cc(Cl)c2oc2nc3n(c(=O)c12)CCCS3 [TBA161-C, 9,11-dichloro-3,4-dihydro-chromeno[2′,3′:4,5]pyrimido[2,1-b][1,3]thiazine-6,7-dione]","MIC90, TBA161-C-resistant Mtb strains",[1],exceeding 20 µM
same,MIC90 of resistant Mtb strains compared to the parental strain,[1],more than tenfold higher
same,"Increase of MIC90, Mtb overexpressing wild-type aspS vs wild-type strain",[2],fivefold
same,"MIC90, Mtb overexpressing mutated aspS (aspSMmarR168G)",[2],> 80 µM
